Like-named read-outs stand apart in the source and are kept apart here.
Columns and labels:
[1] = target: T1, CK1epsilon (Homo sapiens, UniProt P49674); assay: CK1ε kinase activity assay (radioisotope filtration binding assay); type: biochemical; details: 10 μM ATP, 3-fold serial dilution from 100 μM
T1 construct: purchased Reaction Biology
Description: The CK-1 assay was conducted according to the techniques disclosed in Anastassiadis et al, Nat Biotechnol; 29(11): 1039-1045. Briefly, specific kinase/substrate pairs along with required cofactors were prepared in reaction buffer; 20 mM Hepes pH 7.5, 10 mM MgCl2, 1 mM EGTA, 0.02% Brij35, 0.02 mg/ml BSA, 0.1 mM Na3VO4, 2 mM DTT, 1% DMSO (for specific details of individual kinase reaction components see Supplementary Table 2, Anastassiadis et al. 2011). Compounds were delivered into the reaction, followed ˜20 minutes later by addition of a mixture of ATP (Sigma, St. Louis Mo.) and 33P ATP (Perkin Elmer, Waltham Mass.) to a final concentration of 10 μM. Reactions were carried out at room temperature for 120 min, followed by spotting of the reactions onto P81 ion exchange filter paper (Whatman Inc., Piscataway, N.J.). Unbound phosphate was removed by extensive washing of filters in 0.75% phosphoric acid. […] IC50 values and curve fits were obtained using Prism (GraphPad Software). • Substrate: Peptide substrate, [KRRRAL[pS]VASLPGL], 20 μM ATP 10 μM • Reaction: Substrate+[γ-33P]-ATP 33P-Substrate+ADP • Assay: radioisotope filtration binding assay (Reaction Biology). […]

[2] = system: Z-138 (mantle cel lymphoma, MCL) cells; assay: Cell Titer Glo viability, Z-138 mantle cell lymphoma cells; type: cell-based; details: Homo sapiens; Z-138, 25 uM, 24 hours
Description: (§1) Cytotoxicity was performed on cultured cells using Cell Titer Glo, as previously described. Experiments were carried out in 96-well plates, with each treatment in triplicate. Samples were taken at typically 24 hours, 48 hours, and/or 72 hours after treatment, as indicated. Cytotoxicity was expressed by the decreasing percentage of live cells in each treatment relative to the untreated control from the same experiment, as a function of time. IC50 (half the maximal inhibitory concentration) for each cell line was calculated using the CalcuSyn Version 2.0 software (Biosoft).
(§2) CUX-0404A reduces viability of OCI-LY7 cells (germinal center diffuse large B cell lymphoma, GCB-DLBCL), see FIG. 4. The lymphoma cell line LY7 was treated with CUX-0404A for 24 hours (dark circle), 48 hours (light circle) or CUX0404B for 24 hours (dark square) or 48 hours (light square). Viability was determined similar to that for FIG. 1. At 15 uM concentrations, viability of cells dropped to 60% at 24 hours, ˜42% at 48 hours, At 25 uM concentrations, viability dropped to 0% at 24 hours. FIG. 5. CUX-0404A reduces viability of Z-138 (mantle cel lymphoma, MCL) cells more potently than TG-1202. […] Viability was determined similar to that for FIG. 1. At 25 uM concentrations, viability of cells dropped to 20% for the CUX-0404A treatment as compared to 60% for TGR-1202

[3] = system: c-Myc; assay: Western blot of c-Myc level in LY7 (GCB-DLBCL) cells; type: cell-based; details: for reduction in c-Myc (Western blot): LY-7, 25 uM, 6 hours
Description: (§3) Western blot was performed on whole protein extract from cultured cells under specified treatment conditions, most often for 24 hours. Western blotting was performed according to standard protocols, using the chemiluminescence detection system from Thermo Scientific. The primary antibodies were purchased from Cell Signaling Technology unless specified otherwise, and were against these proteins: 4EBP1, phos-4EBP1, S6K, phos-S6K, Bcl2, Bcl-xL, PARP, c-myc, B-catenin, P-4EBP1 (S65), P-4EBP1 (T70). Signals of beta-actin and GAPDH were used as loading control. Goat anti-rabbit or anti-mouse secondary antibodies were purchased from Santa Cruz Biotechnology.
(§4) The lymphoma cell lines LY10 and LY7 were treated with PF4800567 (PF), Cal-101 (Cal), TGR-1202 (TG) and CUX-03166 as single agents for 6 hours all at 25 uM concentrations. Protein extracts were processed for Western blot using antibodies against c-Myc, B-Catenin, phosphorylated 4EBP1, total 4EBP1, and beta actin.
(§5) FIG. 6. […] Protein extracts were processed for Western blot using antibodies against c-Myc, B-Catenin, phosphorylated 4EBP1, total 4EBP1, P-p70S6K, P70S6K, PARP and beta actin.

[4] = system: phosphorylation of 4EBP1; assay: Western blot of phosphorylated 4EBP1 in GCB-DLBCL lymphoma cell line; type: cell-based; details: 12 hours, 15 and 20 uM
Description: as §3, §5

[5] = system: LY10 cells; assay: Cell Titer Glo viability, lymphoma cell line LY10; type: cell-based; details: for viability at 50 µM: LY10, 50 uM
Description: as §1
The lymphoma cell line LY10 was treated with CUX-03166 (′166 compound) for 24 hours, 48 hours and 72 hours. Cells were collected from the treatment group and the vehicle treated negative control. Viable cells were quantitated by the Cell-Titer Glo assay from Promega. Viable cells in the treated cells were expressed as a percentage of the negative control. […] At a concentration of 50 uM, viability of cells drop to 0% just at 24 hours of treatment. Cells were also treated with Cal-101 and TGR-1202 and viability was determined at 24 hr. For lower concentrations of 5 μm and 15 μM, viability dropped to ˜80% for both treatments. However, as concentrations increased up to 50 μM, viability remained at ˜80% for Cal-101 and modestly dropped to ˜65% for TGR-1202, as shown in FIG. 1.

[6] = system: LY7 cells; assay: Cell Titer Glo viability, lymphoma cell line LY7 (OCI-LY7, GCB-DLBCL); type: cell-based; details: for viability at 15 µM: LY7, 15 uM; for viability at 25 µM: LY7, 25 uM
Description: as §1
The lymphoma cell line LY7 was treated with CUX-03166 for 24 hr (diamond), 48 hours (square) and 72 hours (triangle). Viability was determined similar to that for Example 2. […] At 25 uM concentrations, viability dropped to 0% at 24 hours.
as §2

[7] = system: c-Myc; assay: Western blot of c-Myc level in LY10 cells; type: cell-based; details: LY-10, 25 uM, 6 hours, vs vehicle
Description: as §3, §4

[8] = system: phosphorylation of 4EBP1; assay: Western blot of phosphorylated 4EBP1 in LY10 cells; type: cell-based; details: LY-10, 25 uM, 6 hours, vs vehicle
Description: as §3, §4

[9] = 24 hours, read-out: viability (viable cells as percentage of negative control)

T1 sequence (P49674 whole entry): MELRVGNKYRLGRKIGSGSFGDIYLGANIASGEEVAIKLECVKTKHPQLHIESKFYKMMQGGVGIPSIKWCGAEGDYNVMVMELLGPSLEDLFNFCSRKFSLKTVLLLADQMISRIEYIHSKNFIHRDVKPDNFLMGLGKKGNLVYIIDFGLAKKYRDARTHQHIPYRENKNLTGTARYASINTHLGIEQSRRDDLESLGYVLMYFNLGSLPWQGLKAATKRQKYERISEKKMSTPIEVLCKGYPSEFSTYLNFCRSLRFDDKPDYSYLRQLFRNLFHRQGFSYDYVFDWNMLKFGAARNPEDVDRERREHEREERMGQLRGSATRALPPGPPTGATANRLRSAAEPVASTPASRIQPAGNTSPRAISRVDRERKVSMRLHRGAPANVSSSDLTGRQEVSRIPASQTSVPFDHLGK

CC(C)Oc1ccc(-c2nn([C@@H](C)c3nc4ncc(Br)c(N(C)C)c4c(=O)n3-c3ccccc3)c3ncnc(N)c23)cc1F [CUX-0404A] was tested, and the IC50 [1] was 3.21 µM, the viability at 25 µM [2] was 20% and the “c-myc level (Western blot)” value ([3]; GCB-DLBCL lymphoma cell line, 12 hours, 20 uM) was “undetectable”. For the same compound, the “reduction of c-Myc level (Western blot)” value ([3]; GCB-DLBCL lymphoma cell line, 12 hours, 15 and 20 uM, vs vehicle) was “significantly greater reduction”, the “inhibition of phosphorylation of 4EBP1 (Western blot)” value [4] was “Potent Inhibition” and the viability at 20 µM ([5]; LY10 (as printed in summary), 20 μM, 48 hours) was 0%. It also gave a viability at 25 µM ([5]; LY10 (as printed in summary), 25 μM, 24 hours, read-out: viability) of 0%, a viability at 15 µM ([6]; 24 hours) of 60% and a viability at 15 µM ([6]; 48 hours) of about 42%. The viability at 25 µM ([6]; 24 hours) was 0%.
CC[C@@H](c1nc2cccc(F)c2c(=O)n1-c1ccccc1)n1nc(-c2ccc(OC(C)C)c(F)c2)c2c(N)ncnc21 [CUX-03166] was tested, and the “increase in potency in inhibiting c-Myc compared to TGR-1202” value ([3]; LY7 cells, Western blot) was “near-fiftyfold increase in potency”, the “reduction in c-Myc (Western blot)” value [3] was “undetectable level” and the viability at 25 µM ([5]; LY10, 25 uM, 48 hours, read-out: viability (viable cells as percentage of negative control)) was 0%. The viability at 50 µM [5, 9] was 0%, the “inhibition of the c-Myc level (Western blot)” value [7] was “significantly greater reduction” and the viability at 15 µM ([6]; 24 hours) was 40%. The viability at 15 µM ([6]; 48 hours) was 10%, the viability at 15 µM ([6]; 72 hours) was about 0% and the viability at 25 µM ([6]; 24 hours) was 0%.
CC[C@H](Nc1ncnc2[nH]cnc12)c1nc2cccc(F)c2c(=O)n1-c1ccccc1 [Cal-101, reference compound] gave a viability at 50 µM [5, 9] of about 80%.
With Nc1ncnc2c1c(COc1cccc(Cl)c1)nn2C1CCOCC1 [PF4800, reference compound] the “inhibition of phosphorylation of 4EBP1 (Western blot)” value [8] was “moderate inhibition”, the “reduction in c-Myc (Western blot)” value [3] was “modest reduction” and the “inhibition of the c-Myc level (Western blot)” value [7] was “moderate inhibition”.
